Read-outs that look alike come from different tables or passages of the source.
Key:
[1] = target: T1, human A2a adenosine receptor (Homo sapiens, UniProt P29274); experiment: Ligand binding assay for adenosine A2a receptor ([3H]CGS21680, HEK293 plasma membrane)
T1 construct: purchased PerkinElmer RB-HA2a; host or cells: HEK293 cell plasma membrane
Procedure: Ligand Binding Assay for Adenosine A2a Receptor
Ligand binding assay of adenosine A2a receptor was performed using plasma membrane of HEK293 cells containing human A2a adenosine receptor (PerkinElmer, RB-HA2a) and radioligand [^3H]CGS21680 (PerkinElmer, NET1021). Assay was set up in 96-well polypropylene plate in total volume of 200 µl by sequentially adding 20 µL1:20 diluted membrane, 130 µLassay buffer (50 mM Tris·HCl, pH7.4 10 mM MgCl2, 1 mM EDTA) containing [^3H] […] Nonspecific binding was determined by […] NECA. Reaction was carried out at room temperature for 2 hours before filtering through 96-well GF/C filter plate pre-soaked in 50 mM Tris·HCl, pH7.4 containing 0.3% polyethylenimine. Plates were then washed 5 times with cold 50 mM Tris·HCl, pH7.4, dried and sealed at the bottom. Microscintillation fluid 30 µl was added to each well and the top sealed. Plates were counted on Packard Topcount for [^3H]. Data was analyzed in Microsoft Excel and GraphPad Prism programs.

[2] = target: T2, human adenosine A2a receptors (Homo sapiens, UniProt P29274); experiment: Adenosine A2a receptor functional assay, antagonist mode (cAMP-inducible beta-galactosidase reporter, 50 nM NECA); format: cell-based; settings: CHO-K1 cells, read-out: Ki (nM) A2a antagonist function
T2 construct: expressed in transfected cells; host or cells: CHO-K1 cells with cAMP-inducible beta-galactosidase reporter gene
Procedure: Adenosine A2a Receptor Functional Assay
CHO-K1 cells overexpressing human adenosine A2a receptors and containing cAMP-inducible beta-galactosidase reporter gene were seeded at 40-50K/well into 96-well tissue culture plates and cultured for two days. On assay day, cells were washed once with 200 µL assay medium (F-12 nutrient mixture/0.1 % BSA). For agonist assay, adenosine A2a receptor agonist NECA was subsequently added and cell incubated at 37°C, 5% CO2 for 5 hrs before stopping reaction. In the case of antagonist assay, cells were incubated with antagonists for 5 minutes at R.T. followed by addition of 50 nM NECA. Cells were then incubated at 37°C, 5% CO2 for 5 hrs before stopping experiments by washing cells with PBS twice. 50 µL 1X lysis buffer (Promega, 5X stock solution, needs to be diluted to 1X before use) was added to each well and plates frozen at -20°C. For β-galactosidase enzyme colorimetric assay, plates were thawed out at room temperature and 50 µL 2X assay buffer (Promega) added to each well. Color was allowed to develop at 37°C for 1 h or until reasonable signal appeared. Reaction was then stopped with 150 µL 1 M sodium carbonate. […] Data was analyzed in Microsoft Excel and GraphPad Prism programs.

Adenosine A1 receptor = target: T3, Adenosine A1 receptor (Homo sapiens, UniProt P30542); experiment: A1 antagonist function (no method described); format: cell-based
T3 sequence (P30542 1-326): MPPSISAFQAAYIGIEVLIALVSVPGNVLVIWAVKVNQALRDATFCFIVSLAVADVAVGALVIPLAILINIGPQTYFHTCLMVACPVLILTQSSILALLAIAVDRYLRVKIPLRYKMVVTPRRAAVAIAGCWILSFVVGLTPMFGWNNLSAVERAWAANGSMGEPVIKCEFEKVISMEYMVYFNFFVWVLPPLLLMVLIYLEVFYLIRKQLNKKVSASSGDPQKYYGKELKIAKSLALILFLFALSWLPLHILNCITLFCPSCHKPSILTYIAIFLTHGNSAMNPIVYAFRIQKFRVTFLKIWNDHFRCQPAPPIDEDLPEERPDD

[3] = radioligand [3H]CGS21680, HEK293 membranes, room temperature 2 hours; read-out: Ki (nM) A2a binding

T2 sequence (P29274 whole entry): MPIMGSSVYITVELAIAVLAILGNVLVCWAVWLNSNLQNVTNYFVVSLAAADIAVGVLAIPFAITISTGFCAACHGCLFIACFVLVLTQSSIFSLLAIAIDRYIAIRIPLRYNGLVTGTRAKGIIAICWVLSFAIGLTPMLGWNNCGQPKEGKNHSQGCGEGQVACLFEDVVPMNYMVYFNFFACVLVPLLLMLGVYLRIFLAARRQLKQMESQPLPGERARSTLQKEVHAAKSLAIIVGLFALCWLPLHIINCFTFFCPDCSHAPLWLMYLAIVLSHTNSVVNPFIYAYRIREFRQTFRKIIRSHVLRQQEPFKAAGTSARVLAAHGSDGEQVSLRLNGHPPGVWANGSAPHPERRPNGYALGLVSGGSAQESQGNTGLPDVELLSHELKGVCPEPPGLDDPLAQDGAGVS
T1 sequence (P29274 whole entry): as above

Compound: CCN(CC)CCNc1nc(-c2ccccc2)c2c(n1)-c1ccccc1C2=O [Compound 27]
- Ki [1, 3]: 147 nM
- Ki [2]: 68.3 nM
- Ki (Adenosine A1 receptor): > 1000 nM

Compound: Nc1nc(-c2ccccc2)c2c(n1)-c1cccc(CN3CCOCC3)c1C2=O [Compound 51]
- Ki [1, 3]: 36.8 nM
- Ki [2]: 3.26 nM
- Ki (Adenosine A1 receptor): 32.9 nM

Compound: Nc1nc(-c2ccco2)c2c(n1)-c1c(Cl)ccc(Cl)c1C2=O [Compound 26]
- Ki [1, 3]: 34.6 nM
- Ki [2]: 0.88 nM
- Ki (Adenosine A1 receptor): 3.13 nM

Compound: N#Cc1c(N)nc(-c2ccc(F)cc2)c2c1-c1ccccc1C2=O [Compound 71]
- Ki [1, 3]: 17.2 nM
- Ki [2]: 3.39 nM
- Ki (Adenosine A1 receptor): 2.42 nM

Compound: CN1CCN(C(=O)c2c(N)nc(-c3ccco3)c3c2-c2ccccc2C3=O)CC1 [Compound 80]
- Ki [1, 3]: 69.1 nM
- Ki [2]: 15.9 nM
- Ki (Adenosine A1 receptor): 56 nM

Compound: CSc1nc(N)nc2c1C(=O)c1c(N)cccc1-2 [Compound 18]
- Ki [1, 3]: 318 nM
- Ki [2]: > 3000 nM
- Ki (Adenosine A1 receptor): 189 nM

Compound: N#Cc1c(N)nc(C2CCCCC2)c2c1-c1ccccc1C2=O [Compound 95]
- Ki [1, 3]: 338 nM
- Ki [2]: > 1000 nM
- Ki (Adenosine A1 receptor): 110 nM

Compound: COC(=O)CN(C)Cc1cccc2c1C(=O)c1c(-c3ccccc3)nc(N)nc1-2 [Compound 56]
- Ki [1, 3]: 25.7 nM
- Ki [2]: 6.81 nM
- Ki (Adenosine A1 receptor): 25.8 nM

Compound: Nc1nc(-c2ccccc2)c2c(n1)-c1cccc(CN3CCCCC3)c1C2=O [Compound 53]
- Ki [1, 3]: 64.2 nM
- Ki [2]: 14.2 nM
- Ki (Adenosine A1 receptor): 40.8 nM

Compound: CC(CN(C)C)OC(=O)c1c(N)nc(-c2ccco2)c2c1-c1ccccc1C2=O (stereo not drawn) [Compound 96]
- Ki [1, 3]: 48.5 nM
- Ki [2]: 10.1 nM
- Ki (Adenosine A1 receptor): 52.5 nM

Compound: N#Cc1c(N)nc(-c2ccoc2)c2c1-c1ccccc1C2=O [Compound 66]
- Ki [1, 3]: 4.21 nM
- Ki [2]: 0.069 nM
- Ki (Adenosine A1 receptor): 15.6 nM

Compound: Nc1nc(-c2ccco2)c2c(n1)-c1ccc(Br)cc1C2=O [Compound 16]
- Ki [1, 3]: 1.75 nM
- Ki [2]: 0.169 nM
- Ki (Adenosine A1 receptor): 5.22 nM

Compound: Nc1nc(-c2ccccc2)c2c(n1)-c1cccc(CN3CCCC(CO)C3)c1C2=O (stereo not drawn) [Compound 57]
- Ki [1, 3]: 34 nM
- Ki [2]: 15.9 nM
- Ki (Adenosine A1 receptor): 39.3 nM

Compound: CN(C)CCOC(=O)c1c(N)nc(-c2ccsc2)c2c1-c1ccccc1C2=O [Compound 93]
- Ki [1, 3]: 64.1 nM
- Ki [2]: 23.6 nM
- Ki (Adenosine A1 receptor): 104 nM

Compound: COc1cccc(-c2nc(N)nc3c2C(=O)c2ccccc2-3)c1 [Compound 11]
- Ki [1, 3]: 8.85 nM
- Ki [2]: 1.63 nM
- Ki (Adenosine A1 receptor): 2.47 nM

Compound: CN1CCN(Cc2cccc3c2C(=O)c2c(-c4ccccc4)nc(N)nc2-3)CC1 [Compound 50]
- Ki [1, 3]: 80.1 nM
- Ki [2]: 11.3 nM
- Ki (Adenosine A1 receptor): 94.2 nM

Compound: COc1ccccc1-c1nc(N)nc2c1C(=O)c1ccccc1-2 [Compound 12]
- Ki [1, 3]: 33.5 nM
- Ki [2]: 32.5 nM
- Ki (Adenosine A1 receptor): 172 nM

Compound: CN(C)CCCOC(=O)c1c(N)nc(-c2ccccc2)c2c1-c1ccccc1C2=O [Compound 87]
- Ki [1, 3]: 98.9 nM
- Ki [2]: 39.5 nM
- Ki (Adenosine A1 receptor): > 300 nM

Compound: CN1CCN(CCCOC(=O)c2c(N)nc(-c3ccccc3)c3c2-c2ccccc2C3=O)CC1 [Compound 83]
- Ki [1, 3]: 200 nM
- Ki [2]: 74.9 nM
- Ki (Adenosine A1 receptor): 117 nM

Compound: COc1ccc(-c2nc(N)nc3c2C(=O)c2ccccc2-3)cc1 [Compound 2]
- Ki [1, 3]: 2.03 nM
- Ki [2]: 6.87 nM
- Ki (Adenosine A1 receptor): 5.32 nM

Compound: Nc1nc(-c2cccnc2)c2c(n1)-c1ccccc1C2=O [Compound 5]
- Ki [1, 3]: 5.36 nM
- Ki [2]: 9.64 nM
- Ki (Adenosine A1 receptor): 27.1 nM

Compound: C[C@H](O)[C@@H](O)c1cccc2c1C(=O)c1c(-c3ccccc3)nc(N)nc1-2 [Compound 32]
- Ki ([1]; read-out: Ki (nM) A2a binding; radioligand [3H]CGS21680, HEK293 membranes, room temperature 2 hours): 3.55 nM
- Ki [2]: 0.634 nM
- Ki (Adenosine A1 receptor): 9.89 nM

Compound: N#Cc1c(N)nc(-c2ncc[nH]2)c2c1-c1ccccc1C2=O [Compound 75]
- Ki [1, 3]: 23.7 nM
- Ki [2]: 1.51 nM
- Ki (Adenosine A1 receptor): 78.3 nM

Compound: Nc1nc(-c2ccncc2)c2c(n1)-c1ccccc1C2=O [Compound 6]
- Ki [1, 3]: 3.9 nM
- Ki [2]: 4.56 nM
- Ki (Adenosine A1 receptor): 16.4 nM

Compound: COc1ccc(-c2nc(N)nc3c2Cc2ccccc2-3)cc1 [Compound 1]
- Ki [1, 3]: 44.6 nM
- Ki [2]: 234 nM
- Ki (Adenosine A1 receptor): 53 nM

Compound: N#Cc1c(N)nc(-c2ccco2)c2c1-c1c(F)c(F)c(F)c(F)c1C2=O [Compound 79]
- Ki [1, 3]: 8.03 nM
- Ki [2]: 12.5 nM
- Ki (Adenosine A1 receptor): > 1000 nM

Compound: Nc1nc(-c2ccccc2)c2c(c1C(=O)OCCN1CCOCC1)-c1ccccc1C2=O [Compound 91]
- Ki [1, 3]: 208 nM
- Ki [2]: 22.1 nM
- Ki (Adenosine A1 receptor): 14.7 nM

Compound: N#Cc1c(N)nc(-c2cccs2)c2c1-c1ccccc1C2=O [Compound 72]
- Ki [1, 3]: 12.6 nM
- Ki [2]: 2.54 nM
- Ki (Adenosine A1 receptor): 6.24 nM

Compound: Nc1nc(-c2ccco2)c2c(n1)-c1c(F)cccc1C2=O [Compound 36]
- Ki [1, 3]: 4.37 nM
- Ki [2]: 0.052 nM
- Ki (Adenosine A1 receptor): 2.52 nM

Compound: CN1CCCC1COC(=O)c1c(N)nc(-c2ccco2)c2c1-c1ccccc1C2=O (stereo not drawn) [Compound 82, 9H-indeno[2,1-c]pyridine-4-carboxylic acid, 3-amino-1-furan-2-yl-9-oxo-, 1-methyl-pyrrolidin-2-ylmethyl ester]
- Ki [1, 3]: 20.2 nM
- Ki [2]: 1.36 nM
- Ki (Adenosine A1 receptor): 29.6 nM

Compound: COc1cccc(-c2nc(N)c(C#N)c3c2C(=O)c2ccccc2-3)c1 [Compound 74]
- Ki [1, 3]: 14.7 nM
- Ki [2]: 5.7 nM
- Ki (Adenosine A1 receptor): 7.28 nM

Compound: Nc1nc(-c2ccco2)c2c(n1)-c1cc(Cl)c(Cl)cc1C2=O [Compound 25]
- Ki [1, 3]: 173 nM
- Ki [2]: 5.69 nM
- Ki (Adenosine A1 receptor): 17.4 nM

Compound: CN(C)C=Nc1nc(-c2cccc(F)c2)c2c(n1)-c1ccccc1C2=O [Compound 19]
- Ki [1, 3]: 111 nM
- Ki [2]: 20.9 nM
- Ki (Adenosine A1 receptor): 21.6 nM

Compound: Nc1nc(-c2ccsc2)c2c(n1)-c1ccccc1C2=O [Compound 15]
- Ki [1, 3]: 3.23 nM
- Ki [2]: 0.258 nM
- Ki (Adenosine A1 receptor): 3.46 nM

Compound: Nc1nc(-c2ccco2)c2c(c1C(=O)O)-c1ccccc1C2=O [Compound 69]
- Ki [1, 3]: 2260 nM
- Ki [2]: 90.2 nM
- Ki (Adenosine A1 receptor): > 1000 nM

Compound: Nc1nc(-c2ccccc2)c2c(c1C(=O)OCCCN1CCOCC1)-c1ccccc1C2=O [Compound 84]
- Ki [1, 3]: 174 nM
- Ki [2]: 24.7 nM
- Ki (Adenosine A1 receptor): 27.4 nM

Compound: Nc1nc(-c2ccc(F)c(F)c2)c2c(n1)-c1ccccc1C2=O [Compound 28]
- Ki [1, 3]: 48.9 nM
- Ki [2]: 3.53 nM
- Ki (Adenosine A1 receptor): 5.86 nM

Compound: Nc1nc(-c2ccco2)c2c(n1)-c1c(N)cccc1C2=O [Compound 21]
- Ki [1, 3]: 0.376 nM
- Ki [2]: 0.053 nM
- Ki (Adenosine A1 receptor): 3.51 nM

Compound: Nc1nc(-c2ccco2)c2c(n1)-c1ccccc1C2 [Compound 4]
- Ki [1, 3]: 0.885 nM
- Ki [2]: 2.63 nM
- Ki (Adenosine A1 receptor): 15.6 nM

Compound: C=CCCc1nc(N)c(C#N)c2c1C(=O)c1ccccc1-2 [Compound 94]
- Ki [1, 3]: 49.5 nM
- Ki [2]: > 1000 nM
- Ki (Adenosine A1 receptor): 36 nM

Compound: N#Cc1c(N)nc(-c2cccc(F)c2)c2c1-c1ccccc1C2=O [Compound 67]
- Ki [1, 3]: 13.4 nM
- Ki [2]: 0.618 nM
- Ki (Adenosine A1 receptor): 4.37 nM

From patent publication EP1673354B1, “ARYLINDENOPYRIDINES AND ARYLINDENOPYRIMIDINES AND THEIR USE AS ADENOSINE A2A RECEPTOR ANTAGONISTS” (Ortho-McNeil Pharmaceutical, Inc., priority 2003, dated 2005)
